Experimental data from US11534457B2, “Use of dextran sulfate” (priority 2017, dated 2022).

Tested on: severe traumatic brain injury (sTBI)
Assay: sTBI in rats, brain gene expression arrays and pathway analysis (Example 9)
Type: in vivo, Male Wistar rats
Parameters: key to z score, canonical pathway Dendritic Cell Maturation / z score, canonical pathway Adrenomedullin Signaling pathway / z score, canonical pathway Endothelin-1 Signaling / effect on canonical pathway Adrenomedullin Signaling pathway / effect on canonical pathway Endothelin-1 Signaling / effect on canonical pathway Dendritic Cell Maturation / Ingenuity canonical pathway Adrenomedullin signaling pathway, z score / Ingenuity canonical pathway FLT3 Signaling in Hematopoietic Progenitor Cells, z score / Ingenuity canonical pathway Opioid Signaling Pathway, z score / Ingenuity canonical pathway VDR/RXR Activation, z score / Ingenuity canonical pathway Neuropathic Pain Signaling In Dorsal Horn Neurons, z score / Ingenuity canonical pathway STAT3 Pathway, z score / Ingenuity canonical pathway IL-1 Signaling, z score / Ingenuity canonical pathway IL-6 Signaling, z score / Ingenuity canonical pathway NF-κB Signaling, z score / Ingenuity canonical pathway Role of NFAT in Cardiac Hypertrophy, z score / Ingenuity canonical pathway PPARα/RXRα Activation, z score: *: ambiguous effect
Settings: TBI + 5 mg/kg LMW-DS
Procedure: The experimental protocol used in this study was approved by the Ethical Committee of the Catholic University of Rome, according to international standards and guidelines for animal care. Male Wistar rats of 300-350 g body weight were fed with standard laboratory diet and water ad libitum in a controlled environment. As the anesthetic mixture, the animals received 35 mg/kg b.w. ketamine and 0.25 mg/kg body weight midazolam by i.p. injection. Severe traumatic brain injury (sTBI) was induced by dropping a 450 g weight from 2 m height on to the rat head that had been protected by a metal disk previously fixed on the skull, according to the “weight drop” impact acceleration model (Marmarou et al., A new model of diffuse brain injury in rats. Part I: Pathophysiology and biomechanics. J Neurosurg. 1994; 80: 291-300). […] At the end of each period of treatment, rats were anesthetized again and then immediately sacrificed.
LMW-DS (Tikomed AB) was provided at a stock concentration of 20 mg/ml and was kept in a temperature-monitored refrigerator at 4° C. LMW-DS aliquots were diluted to the appropriate dosing concentration in sterile saline prior to delivery of a single subcutaneous injection.
Three doses of LMW-DS were administered subcutaneously 30 minutes post-TBI. The animals were sacrificed at 2 days post-TBI. The animals were divided into the following subgroups:
Three doses of LMW-DS were administered subcutaneously 30 minutes post-TBI. The animals were sacrificed at 7 days post-TBI. The animals were divided into the following subgroups:
An in vivo craniectomy was performed on all animals during anesthesia. After carefully removing the rat's skull, the brain was exposed and removed with a surgical spatula and quickly dropped in RNALater and preserved at 4° C. for further processing.
RNA extraction and array processing was carried out by SourceBioscience. The arrays used were the Agilent Rat expression arrays.
Statistical analysis was carried out using the Metaboanalyst software package. Gene expression changes of 10% with a p<0.05 were regarded as significant.
Pathway analysis of the differentially regulated genes was carried out using the Ingenuity pathway analysis package. The analysis was performed with special reference to pathways and molecular processes and diseases associated with neurodegenerative disease, including dementia, Alzheimer's disease, ALS, TBI and stroke, and with scarring and fibrosis, including glaucoma and normal pressure hydrocephalus (NPH) after subarachnoid haemorrhage.

[1] = 7 days after TBI, relative to control

## low molecular weight dextran sulfate [LMW-DS]
7 days after TBI
  z score: Cellular homeostasis: 1.615
  z score: Chemotaxis: 1.873
  z score: Concentration of lipid: −0.575
  z score: Development of body axis: 1.213
  z score: Development of body trunk: 1.09
  z score: Development of carcinoma: 0.152
  z score: Development of connective tissue cells: 1.638
  z score: Development of epithelial tissue: 0.262
  z score: Development of genitourinary system: −0.336
  z score: Development of head: 1.213
  z score: Development of neurons: 1.106
  z score: Development of sensory organ: 0.669
  z score: Development of vasculature: 0.295
  z score: Differentiation of bone: 1.012
  z score: Differentiation of bone cells: 0.85
  z score: Differentiation of connective tissue cells: 0.769
  z score: Digestive organ tumor: −1.348
  z score: Digestive system cancer: −1.792
  z score: Endocrine gland tumor: −0.067
  z score: Expression of RNA: 1.797
  z score: Extracranial solid tumor: 0.369
  z score: Failure of kidney: 0.555
  z score: Formation of eye: 1.664
  z score: Gastrointestinal tumor: −1.215
  z score: Genital tumor: 0.305
  z score: Genitourinary carcinoma: 1.131
  z score: Genitourinary tumor: 1.388
  z score: Glucose metabolism disorder: 0.439
  z score: Growth of connective tissue: −0.324
  z score: Growth of epithelial tissue: −1.58
  z score: Growth of tumor: 2.295
  z score: Head and neck cancer: −1.154
  z score: Head and neck tumor: −0.355
  z score: Hematologic cancer: −1.725
  z score: Hematologic cancer of cells: −1.486
  z score: Hematopoietic neoplasm: −1.002
  z score: Intestinal tumor: −1.09
  z score: Invasion of cells: 1.32
  z score: Leukocyte migration: 3.062
  z score: Lymphatic system tumor: −0.956
  z score: Lymphocytic cancer: −1.486
  z score: Lymphocytic neoplasm: −1.486
  z score: Lymphoid cancer: −0.956
  z score: Lymphoma: −1.224
  z score: Lymphoproliferative disorder: −1.727
  z score: Lymphoreticular neoplasm: −1.224
  z score: Malignant genitourinary solid tumor: 0.346
  z score: Malignant solid tumor: 0.423
  z score: Microtubule dynamics: 1.82
  z score: Migration of cells: 2.659
  z score: Migration of endothelial cells: 2.16
  z score: Morbidity or mortality: −2.848
  z score: Necrosis: 0.228
  z score: Necrosis of epithelial tissue: 1.674
  z score: Neoplasia of cells: 0.474
  z score: Neoplasia of leukocytes: −1.486
  z score: Non-hematologic malignant neoplasm: −0.243
  z score: Non-hematological solid tumor: 0.021
  z score: Non-melanoma solid tumor: 0.01
  z score: Obesity: 0.493
  z score: Organismal death: −2.885
  z score: Organization of cytoskeleton: 2.174
  z score: Pelvic tumor: 0.445
  z score: Peripheral vascular disease: 1
  z score: Proliferation of connective tissue cells: −0.747
  z score: Proliferation of epithelial cells: −1.196
  z score: Quantity of cells: 0.634
  z score: Quantity of connective tissue: 0.609
  z score: Renal impairment: 0.555
  z score: Secretion of molecule: 1.386
  z score: Sensory system development: −0.307
  z score: Size of body: 0.748
  z score: Skin lesion: −0.111
  z score: Skin tumor: −2.396
  z score: Solid tumor: 1.29
  z score: Synthesis of lipid: 1.937
  z score: Transcription: 1.317
  z score: Transcription of RNA: 1.221
  z score: Transport of molecule: 1.854
  z score: Tumorigenesis of tissue: −0.832
  z score: Vasculogenesis: 0.507
[1]
  Ingenuity canonical pathway Acute Phase Response Signaling, z score: 1.89
  Ingenuity canonical pathway Adrenomedullin signaling pathway, z score: −0.632
  Ingenuity canonical pathway Cardiac Hypertrophy Signaling, z score: 1
  Ingenuity canonical pathway Colorectal Cancer Metastasis Signaling, z score: −0.378
  Ingenuity canonical pathway Dendritic Cell Maturation, z score: 1.897
  Ingenuity canonical pathway ERK5 Signaling, z score: −0.447
  Ingenuity canonical pathway ERK/MAPK Signaling, z score: 1
  Ingenuity canonical pathway Endothelin-1 Signaling, z score: 1.633
  Ingenuity canonical pathway Fcγ Receptor-mediated Phagocytosis in Macrophages and Monocytes, z score: 2.236
  Ingenuity canonical pathway GNRH Signaling, z score: 2
  Ingenuity canonical pathway HMGB1 Signaling, z score: 1.134
  Ingenuity canonical pathway IL-1 Signaling, z score: 1
  Ingenuity canonical pathway IL-6 Signaling, z score: 1
  Ingenuity canonical pathway IL-8 Signaling, z score: 2.646
  Ingenuity canonical pathway ILK Signaling, z score: 1.89
  Ingenuity canonical pathway Leukocyte Extravasation Signaling, z score: 1.342
  Ingenuity canonical pathway NF-κB Signaling, z score: *
  Ingenuity canonical pathway Neuroinflammation Signaling Pathway, z score: 1.941
  Ingenuity canonical pathway Opioid Signaling Pathway, z score: *
  Ingenuity canonical pathway Osteoarthritis Pathway, z score: −1
  Ingenuity canonical pathway PI3K Signaling in B Lymphocytes, z score: 1.89
  Ingenuity canonical pathway PKCθ Signaling in T Lymphocytes, z score: 2
  Ingenuity canonical pathway PPAR Signaling, z score: −1.342
  Ingenuity canonical pathway PPARα/RXRα Activation, z score: *
  Ingenuity canonical pathway Phospholipase C Signaling, z score: 1
  Ingenuity canonical pathway Production of Nitric Oxide and Reactive Oxygen Species in Macrophages, z score: 2.236
  Ingenuity canonical pathway Protein Kinase A Signaling, z score: −1.342
  Ingenuity canonical pathway Role of NFAT in Cardiac Hypertrophy, z score: *
  Ingenuity canonical pathway Role of NFAT in Regulation of the Immune Response, z score: 2.53
  Ingenuity canonical pathway STAT3 Pathway, z score: *
  Ingenuity canonical pathway Signaling by Rho Family GTPases, z score: 1
  Ingenuity canonical pathway Synaptic Long Term Depression, z score: 1
  Ingenuity canonical pathway VDR/RXR Activation, z score: *
  Ingenuity canonical pathway Wnt/β-catenin Signaling, z score: −1
  Ingenuity canonical pathway cAMP-mediated signaling, z score: −2
After 7 days, TBI: Activated
  Diseases or functions annotation: Apoptosis: Inhibited
  Diseases or functions annotation: Apoptosis of tumor cell lines: Inhibited
  Diseases or functions annotation: Bleeding: Inhibited
  Diseases or functions annotation: Breast or colorectal cancer: Inhibited
  Diseases or functions annotation: Breast or ovarian cancer: Inhibited
  Diseases or functions annotation: Cell death: Activated
  Diseases or functions annotation: Cell death of epithelial cells: Activated
  Diseases or functions annotation: Cell death of tumor cell lines: Inhibited
  Diseases or functions annotation: Development of sensory organ: Activated
  Diseases or functions annotation: Digestive organ tumor: Inhibited
  Diseases or functions annotation: Extracranial solid tumor: Activated
  Diseases or functions annotation: Failure of kidney: Activated
  Diseases or functions annotation: Formation of eye: Activated
  Diseases or functions annotation: Gastrointestinal tumor: Inhibited
  Diseases or functions annotation: Glucose metabolism disorder: Activated
  Diseases or functions annotation: Hematologic cancer: Inhibited
  Diseases or functions annotation: Hematologic cancer of cells: Inhibited
  Diseases or functions annotation: Hematopoietic neoplasm: Inhibited
  Diseases or functions annotation: Intestinal tumor: Inhibited
  Diseases or functions annotation: Lymphatic system tumor: Inhibited
  Diseases or functions annotation: Lymphocytic cancer: Inhibited
  Diseases or functions annotation: Lymphocytic neoplasm: Inhibited
  Diseases or functions annotation: Lymphoid cancer: Inhibited
  Diseases or functions annotation: Lymphoma: Inhibited
  Diseases or functions annotation: Lymphoproliferative disorder: Inhibited
  Diseases or functions annotation: Lymphoreticular neoplasm: Inhibited
  Diseases or functions annotation: Morbidity or mortality: Inhibited
  Diseases or functions annotation: Necrosis: Activated
  Diseases or functions annotation: Necrosis of epithelial tissue: Activated
  Diseases or functions annotation: Neoplasia of leukocytes: Inhibited
  Diseases or functions annotation: Obesity: Activated
  Diseases or functions annotation: Organismal death: Inhibited
  Diseases or functions annotation: Peripheral vascular disease: Activated
  Diseases or functions annotation: Renal impairment: Activated
  Diseases or functions annotation: Sensory system development: Inhibited
  Diseases or functions annotation: Skin lesion: Inhibited
  Diseases or functions annotation: Skin tumor: Inhibited
After 7 days, TBI: Inhibited
  Diseases or functions annotation: Abdominal adenocarcinoma: Activated
  Diseases or functions annotation: Abdominal cancer: Inhibited
  Diseases or functions annotation: Abdominal carcinoma: Inhibited
  Diseases or functions annotation: Abdominal neoplasm: Activated
  Diseases or functions annotation: Adenocarcinoma: Inhibited
  Diseases or functions annotation: Angiogenesis: Activated
  Diseases or functions annotation: Breast or pancreatic cancer: Inhibited
  Diseases or functions annotation: Cancer: Activated
  Diseases or functions annotation: Cancer of cells: Activated
  Diseases or functions annotation: Cancer of secretory structure: Activated
  Diseases or functions annotation: Carcinoma: Inhibited
  Diseases or functions annotation: Cell cycle progression: Activated
  Diseases or functions annotation: Cell movement: Activated
  Diseases or functions annotation: Cell movement of endothelial cells: Activated
  Diseases or functions annotation: Cell movement of myeloid cells: Activated
  Diseases or functions annotation: Cell movement of tumor cell lines: Activated
  Diseases or functions annotation: Cell survival: Activated
  Diseases or functions annotation: Cell viability: Activated
  Diseases or functions annotation: Cell viability of tumor cell lines: Activated
  Diseases or functions annotation: Cellular homeostasis: Activated
  Diseases or functions annotation: Chemotaxis: Activated
  Diseases or functions annotation: Concentration of lipid: Inhibited
  Diseases or functions annotation: Development of body axis: Activated
  Diseases or functions annotation: Development of body trunk: Activated
  Diseases or functions annotation: Development of connective tissue cells: Activated
  Diseases or functions annotation: Development of epithelial tissue: Activated
  Diseases or functions annotation: Development of genitourinary system: Inhibited
  Diseases or functions annotation: Development of head: Activated
  Diseases or functions annotation: Development of neurons: Activated
  Diseases or functions annotation: Development of vasculature: Activated
  Diseases or functions annotation: Differentiation of bone: Activated
  Diseases or functions annotation: Differentiation of bone cells: Activated
  Diseases or functions annotation: Differentiation of connective tissue cells: Activated
  Diseases or functions annotation: Digestive system cancer: Inhibited
  Diseases or functions annotation: Endocrine gland tumor: Inhibited
  Diseases or functions annotation: Expression of RNA: Activated
  Diseases or functions annotation: Genital tumor: Activated
  Diseases or functions annotation: Genitourinary carcinoma: Activated
  Diseases or functions annotation: Genitourinary tumor: Activated
  Diseases or functions annotation: Growth of connective tissue: Inhibited
  Diseases or functions annotation: Growth of epithelial tissue: Inhibited
  Diseases or functions annotation: Growth of tumor: Activated
  Diseases or functions annotation: Head and neck cancer: Inhibited
  Diseases or functions annotation: Head and neck tumor: Inhibited
  Diseases or functions annotation: Invasion of cells: Activated
  Diseases or functions annotation: Leukocyte migration: Activated
  Diseases or functions annotation: Malignant genitourinary solid tumor: Activated
  Diseases or functions annotation: Malignant solid tumor: Activated
  Diseases or functions annotation: Microtubule dynamics: Activated
  Diseases or functions annotation: Migration of cells: Activated
  Diseases or functions annotation: Migration of endothelial cells: Activated
  Diseases or functions annotation: Neoplasia of cells: Activated
  Diseases or functions annotation: Non-hematological solid tumor: Activated
  Diseases or functions annotation: Non-melanoma solid tumor: Activated
  Diseases or functions annotation: Nonhematologic malignant neoplasm: Inhibited
